Source: PubChem BioAssay AID248 (DTP/NCI, 2004)
Values joined by “and” are separate entries in the source; they are usually repeats but may differ in a detail not shown here. Equal values may be shown once. Inconclusive results and toxic doses are left out.

Tested on: L1210 leukemia ip in BDF1 mice, survival T/C
Assay: NCI In Vivo Anticancer Drug Screen. Data for tumor model L1210 Leukemia (intraperitoneal) in B6D2F1 (BDF1) mice
Settings: endpoint: mean survival time, higher = longer survival
Method in brief: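 Tumor cells were implanted, animals were treated, and survival was followed. The result divides the treated measurement by the vehicle-control measurement.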

`O=C(Nc1ccc(C2=NCCCN2)cc1)c1ccc(C(=O)Nc2ccc(C3=NCCCN3)cc2)cc1` was tested, and the T/C (dose: 0.5 mg/kg/injection, schedule: Q01DX Z (ip), vehicle: carboxymethylcellulose (CMC)) was 95 % of control, the T/C (dose: 0.5 mg/kg/injection, schedule: Q01DX Z (iv), vehicle: saline) was 100 % of control and the T/C (dose: 0.8 mg/kg/injection, schedule: Q01DX Z (ip), vehicle: carboxymethylcellulose (CMC)) was 101 % of control. The T/C (dose: 1.0 mg/kg/injection, schedule: Q01DX010 (ip), vehicle: other) was 160 % of control, the T/C (dose: 1.0 mg/kg/injection, schedule: Q01DX010 (iv), vehicle: other) was 103 % of control and the T/C (dose: 1.0 mg/kg/injection, schedule: Q01DX Z (iv), vehicle: saline) was 107 % of control. For the same molecule, the T/C (dose: 1.2 mg/kg/injection, schedule: Q01DX Z (ip), vehicle: carboxymethylcellulose (CMC)) was 103 % of control, the T/C (dose: 1.9 mg/kg/injection, schedule: Q01DX Z (ip), vehicle: carboxymethylcellulose (CMC)) was 109 % of control and 211 % of control and the T/C (dose: 2.0 mg/kg/injection, schedule: Q01DX010 (ip), vehicle: other) was 174 % of control and 235 % of control. For the same molecule, the T/C (dose: 2.0 mg/kg/injection, schedule: Q01DX010 (ip), vehicle: saline) was 155 % of control, the T/C (dose: 2.0 mg/kg/injection, schedule: Q01DX010 (iv), vehicle: other) was 180 % of control and the T/C (dose: 2.0 mg/kg/injection, schedule: Q01DX Z (iv), vehicle: saline) was 111 % of control. The T/C (dose: 2.8 mg/kg/injection, schedule: Q01DX Z (ip), vehicle: carboxymethylcellulose (CMC)) was 277 % of control, the T/C (dose: 4.0 mg/kg/injection, schedule: Q01DX010 (ip), vehicle: other) was 205 % of control and 217 % of control and 265 % of control and the T/C (dose: 4.0 mg/kg/injection, schedule: Q01DX010 (ip), vehicle: saline) was 208 % of control and 235 % of control. The T/C (dose: 4.0 mg/kg/injection, schedule: Q01DX010 (iv), vehicle: other) was 237 % of control, the T/C (dose: 4.0 mg/kg/injection, schedule: Q01DX010 (iv), vehicle: saline) was 203 % of control and the T/C (dose: 4.0 mg/kg/injection, schedule: Q01DX Z (iv), vehicle: other) was 202 % of control. For the same molecule, the T/C (dose: 4.0 mg/kg/injection, schedule: Q01DX Z (iv), vehicle: saline) was 238 % of control, the T/C (dose: 4.2 mg/kg/injection, schedule: Q01DX Z (ip), vehicle: carboxymethylcellulose (CMC)) was 280 % of control and the T/C (dose: 6.3 mg/kg/injection, schedule: Q01DX Z (ip), vehicle: carboxymethylcellulose (CMC)) was 209 % of control and 229 % of control. The T/C (dose: 8.0 mg/kg/injection, schedule: Q01DX010 (ip), vehicle: other) was 97 % of control and 115 % of control, the T/C (dose: 8.0 mg/kg/injection, schedule: Q01DX010 (ip), vehicle: saline) was 229 % of control and 338 % of control and the T/C (dose: 8.0 mg/kg/injection, schedule: Q01DX010 (iv), vehicle: saline) was 161 % of control. The T/C (dose: 8.0 mg/kg/injection, schedule: Q01DX Z (iv), vehicle: saline) was 182 % of control, the T/C (dose: 9.4 mg/kg/injection, schedule: Q01DX Z (ip), vehicle: carboxymethylcellulose (CMC)) was 211 % of control and the T/C (dose: 16.0 mg/kg/injection, schedule: Q01DX010 (ip), vehicle: other) was 103 % of control and 89 % of control. The T/C (dose: 16.0 mg/kg/injection, schedule: Q01DX010 (iv), vehicle: saline) was 117 % of control, the T/C (dose: 16.0 mg/kg/injection, schedule: Q01DX010 (sc), vehicle: olive oil, sesame oil, peanut oil) was 113 % of control and the T/C (dose: 21.3 mg/kg/injection, schedule: Q01DX Z (ip), vehicle: carboxymethylcellulose (CMC)) was 119 % of control. For the same molecule, the T/C (dose: 22.0 mg/kg/injection, schedule: Q01DX010 (sc), vehicle: olive oil, sesame oil, peanut oil) was 101 % of control, the T/C (dose: 30.0 mg/kg/injection, schedule: Q01DX Z (oral), vehicle: carboxymethylcellulose (CMC)) was 95 % of control and the T/C (dose: 31.3 mg/kg/injection, schedule: Q01DX010 (sc), vehicle: olive oil, sesame oil, peanut oil) was 119 % of control and 89 % of control. The T/C (dose: 31.3 mg/kg/injection, schedule: Q02DX004 (im), vehicle: olive oil, sesame oil, peanut oil) was 116 % of control and 124 % of control, the T/C (dose: 32.0 mg/kg/injection, schedule: Q01DX Z (ip), vehicle: carboxymethylcellulose (CMC)) was 123 % of control and the T/C (dose: 44.0 mg/kg/injection, schedule: Q01DX Z (sc), vehicle: saline) was 109 % of control. For the same molecule, the T/C (dose: 48.0 mg/kg/injection, schedule: Q01DX Z (ip), vehicle: carboxymethylcellulose (CMC)) was 94 % of control, the T/C (dose: 60.0 mg/kg/injection, schedule: Q01DX Z (oral), vehicle: carboxymethylcellulose (CMC)) was 91 % of control and the T/C (dose: 62.5 mg/kg/injection, schedule: Q01DX001 (im), vehicle: steriod suspending solution) was 106 % of control. For the same molecule, the T/C (dose: 62.5 mg/kg/injection, schedule: Q01DX010 (oral), vehicle: other) was 111 % of control, the T/C (dose: 62.5 mg/kg/injection, schedule: Q02DX004 (im), vehicle: olive oil, sesame oil, peanut oil) was 100 % of control and 107 % of control and the T/C (dose: 66.0 mg/kg/injection, schedule: Q01DX Z (sc), vehicle: saline) was 102 % of control. For the same molecule, the T/C (dose: 72.0 mg/kg/injection, schedule: Q01DX Z (ip), vehicle: carboxymethylcellulose (CMC)) was 100 % of control, the T/C (dose: 88.5 mg/kg/injection, schedule: Q#A X Z (oral), vehicle: saline) was 115 % of control and the T/C (dose: 100.0 mg/kg/injection, schedule: Q01DX Z (sc), vehicle: saline) was 105 % of control. The T/C (dose: 120.0 mg/kg/injection, schedule: Q01DX Z (oral), vehicle: carboxymethylcellulose (CMC)) was 91 % of control, the T/C (dose: 125.0 mg/kg/injection, schedule: Q01DX001 (im), vehicle: steriod suspending solution) was 108 % of control and the T/C (dose: 125.0 mg/kg/injection, schedule: Q02DX004 (im), vehicle: olive oil, sesame oil, peanut oil) was 98 % of control and 105 % of control. The T/C (dose: 150.0 mg/kg/injection, schedule: Q01DX Z (sc), vehicle: saline) was 98 % of control and 103 % of control, the T/C (dose: 177.0 mg/kg/injection, schedule: Q01DX Z (oral), vehicle: saline) was 109 % of control and the T/C (dose: 200.0 mg/kg/injection, schedule: Q#A X Z (oral), vehicle: saline) was 161 % of control. For the same molecule, the T/C (dose: 250.0 mg/kg/injection, schedule: Q01DX001 (im), vehicle: steriod suspending solution) was 93 % of control, the T/C (dose: 250.0 mg/kg/injection, schedule: Q01DX010 (oral), vehicle: other) was 183 % of control and the T/C (dose: 250.0 mg/kg/injection, schedule: Q02DX004 (im), vehicle: olive oil, sesame oil, peanut oil) was 100 % of control and 104 % of control. For the same molecule, the T/C (dose: 300.0 mg/kg/injection, schedule: Q01DX Z (sc), vehicle: saline) was 105 % of control, the T/C (dose: 333.0 mg/kg/injection, schedule: Q## X010 (oral), vehicle: saline) was 153 % of control and the T/C (dose: 400.0 mg/kg/injection, schedule: Q01DX Z (oral), vehicle: saline) was 158 % of control. The T/C (dose: 500.0 mg/kg/injection, schedule: Q01DX010 (oral), vehicle: other) was 181 % of control, the T/C (dose: 500.0 mg/kg/injection, schedule: Q## X010 (oral), vehicle: saline) was 121 % of control and the T/C (dose: 531.0 mg/kg/injection, schedule: Q03DX Z (oral), vehicle: saline) was 105 % of control. The T/C (dose: 600.0 mg/kg/injection, schedule: Q01DX Z (oral), vehicle: saline) was 151 % of control and 163 % of control, the T/C (dose: 798.0 mg/kg/injection, schedule: Q03DX Z (oral), vehicle: saline) was 107 % of control and the T/C (dose: 900.0 mg/kg/injection, schedule: Q01DX Z (oral), vehicle: saline) was 124 % of control. For the same molecule, the T/C (dose: 1200.0 mg/kg/injection, schedule: Q03DX Z (oral), vehicle: saline) was 98 % of control, the T/C (dose: 1239.0 mg/kg/injection, schedule: Q07DX Z (oral), vehicle: saline) was 102 % of control and the T/C (dose: 1800.0 mg/kg/injection, schedule: Q03DX Z (oral), vehicle: saline) was 111 % of control. For the same molecule, the T/C (dose: 1862.0 mg/kg/injection, schedule: Q07DX Z (oral), vehicle: saline) was 105 % of control, the T/C (dose: 2700.0 mg/kg/injection, schedule: Q03DX Z (oral), vehicle: saline) was 121 % of control and the T/C (dose: 2800.0 mg/kg/injection, schedule: Q07DX Z (oral), vehicle: saline) was 101 % of control. For the same molecule, the T/C (dose: 4200.0 mg/kg/injection, schedule: Q07DX Z (oral), vehicle: saline) was 105 % of control.
With `COc1cc([N+](=O)[O-])ccc1NC(=O)Oc1ccc2ccccc2c1` the T/C (dose: 100.0 mg/kg/injection, schedule: Q01DX009 (ip), vehicle: Klucel (hydroxypropylcellulose) (HPC)) was 98 % of control, the T/C (dose: 200.0 mg/kg/injection, schedule: Q01DX009 (ip), vehicle: Klucel (hydroxypropylcellulose) (HPC)) was 96 % of control and the T/C (dose: 400.0 mg/kg/injection, schedule: Q01DX009 (ip), vehicle: Klucel (hydroxypropylcellulose) (HPC)) was 100 % of control.
